The results in this text go back to patent publication US20190031599A1, “INDANE DERIVATIVES AS MGLUR7 MODULATORS” (Takeda Pharmaceutical Company Limited, priority 2016, published 2019).

This assay deals with T1, human mGluR7 (Homo sapiens, UniProt Q14831).
T1 construct: expressed in transfected cells
As to the kind of experiment: mGluR7 assay: CRE-directed luciferase reporter gene assay, reduction of forskolin stimulated cAMP production. The format is cell-based. The note with it: stable CHO cell line expressing the CRE-luc reporter and human mGluR7 genes; decrease of forskolin stimulated luminescence; 10-point concentration-response, duplicate wells. How it is done: The ability of the test compounds to activate mGluR7 was determined by their ability to reduce forskolin stimulated cAMP production. Compounds were assessed in a CRE-directed luciferase reporter gene assay, using a stable CHO cell line expressing the CRE-luc reporter and human mGluR7 genes. In this cell line, production of cAMP stimulated the transcription of the luciferase gene and luciferase activity was then measured in a luminescent enzyme assay (Steady Glo assay; Promega E2550). Activation of mGluR7 decreased the forskolin stimulated luminescence signal.
The day prior to the assay, compounds were serially diluted in DMSO (100× final assay concentration (FAC)), in 384-well plates which were then stored in the dark at room temperature (RT) until use. Cells were seeded at 12.5 k/well in white, clear bottom 384-well plates (Corning 3707) and left for one hour at RT followed by an overnight incubation (37° C.). The following day, the DMSO compound plate was diluted 1:20 (5× FAC) in Opti-MEM I (Life Technologies 11058021). The growth media was removed from the cell plate and replaced with 15 μl Opti-MEM I, followed by a 5 μl addition from the 5× compound plate and a fifteen minute incubation (37° C.). Forskolin (Sigma F3917) was then added to the wells (5 μl of 2.5 μM) and the plate was incubated for five hours (37° C.). During this incubation, the Steady Glo Substrate reagent was warmed to 37° C. Aliquots (11 ml; stored at −20° C.) of this reagent were prepared by dissolving the contents of 1 vial of lyophilised substrate in 100 ml Steady-Glo buffer. A 25 μl addition of the substrate was made to all wells and the plate was incubated for thirty minutes at RT, on a plate shaker (300 rpm; in the dark). Luminescence was then measured using the EnVision Multilabel Reader (Perkin Elmer).
Compound activity was examined using a 10-point, half log concentration-response range and each concentration was tested in duplicate wells. Luminescence values were normalised to ‘maximum’ (forskolin alone) and ‘minimum’ (forskolin in the presence of tool mGluR7 agonist) controls.

T1 sequence (Q14831 35-915): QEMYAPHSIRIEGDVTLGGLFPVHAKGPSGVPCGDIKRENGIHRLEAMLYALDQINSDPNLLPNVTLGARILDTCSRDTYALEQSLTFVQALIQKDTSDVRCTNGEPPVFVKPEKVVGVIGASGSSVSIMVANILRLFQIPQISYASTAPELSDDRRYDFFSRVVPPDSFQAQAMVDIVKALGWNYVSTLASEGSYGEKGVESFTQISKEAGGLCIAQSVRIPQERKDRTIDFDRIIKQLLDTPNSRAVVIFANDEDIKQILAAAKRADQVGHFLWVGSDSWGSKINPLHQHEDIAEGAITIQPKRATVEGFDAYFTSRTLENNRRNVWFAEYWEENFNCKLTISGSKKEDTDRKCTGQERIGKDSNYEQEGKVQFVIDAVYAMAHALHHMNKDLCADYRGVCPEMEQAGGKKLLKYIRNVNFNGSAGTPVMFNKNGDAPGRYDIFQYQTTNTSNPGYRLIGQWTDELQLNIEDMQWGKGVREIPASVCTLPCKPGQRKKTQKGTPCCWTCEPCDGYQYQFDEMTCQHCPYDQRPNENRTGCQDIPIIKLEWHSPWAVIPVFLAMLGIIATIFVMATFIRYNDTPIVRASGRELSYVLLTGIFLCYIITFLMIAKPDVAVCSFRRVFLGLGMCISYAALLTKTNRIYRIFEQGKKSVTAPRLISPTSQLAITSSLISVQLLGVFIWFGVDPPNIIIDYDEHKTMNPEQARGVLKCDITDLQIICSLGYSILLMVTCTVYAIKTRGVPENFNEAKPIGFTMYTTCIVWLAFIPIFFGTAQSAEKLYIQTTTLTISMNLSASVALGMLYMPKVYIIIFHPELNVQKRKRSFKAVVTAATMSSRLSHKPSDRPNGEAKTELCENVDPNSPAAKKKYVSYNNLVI

In turn, `N[C@H]1c2ccccc2C[C@@H]1NC(=O)C(c1ccc(F)cc1F)n1ccccc1=O` (single isomer, unassigned) [Example 51] came in with an EC50 of 565 nM.

Consider `COC1c2ccccc2CC1NC(=O)[C@@H](NCC1CC1)c1ccc(F)cc1` (single isomer, unassigned) [Example 55], for which a half-maximal response (EC50) required 1 nM.

As to `COC1c2ccccc2CC1NC(=O)[C@@H](NCC1CC1)c1ccc(F)cc1` (single isomer, unassigned) [Example 56], a half-maximal response (EC50) required 1 nM.

Molecule `C[C@H](C(=O)NC1Cc2ccccc2C1O)c1ccc(F)cc1` (single isomer, unassigned) [Example 62] showed an EC50 of 704 nM.

For the molecule `C[C@H](C(=O)NC1Cc2ccccc2C1O)c1ccc(F)cc1` (single isomer, unassigned) [Example 63], the half-maximal effective concentration (EC50) turned out to be 767 nM.

For the molecule `C[C@H](C(=O)NC1Cc2ccccc2C1N1CCCC1)c1ccc(F)cc1` (single isomer, unassigned) [Example 67], it took 16 nM to reach a half-maximal effect (EC50).

`C[C@H](C(=O)NC1Cc2ccccc2C1N1CCCC1)c1ccc(F)cc1` (single isomer, unassigned) [Example 68] returned an EC50 of 28 nM.

Molecule `CC(C(=O)N[C@H]1Cc2ccccc2[C@@H]1N)c1ccc(Cl)cc1` (single isomer, unassigned) [Example 69] came in with an EC50 of 47 nM.

Take `CC(C(=O)N[C@H]1Cc2ccccc2[C@@H]1N)c1ccc(Cl)cc1` (single isomer, unassigned) [Example 70]: the EC50 worked out at 956 nM.

Consider `C[C@H](C(=O)NC1Cc2ccccc2C1N1CCOCC1)c1ccc(F)cc1` (single isomer, unassigned) [Example 73], for which the EC50 stood at 45 nM.

In turn, `CC(F)(C(=O)N[C@H]1Cc2ccccc2[C@@H]1N)c1ccc(F)cc1` (single isomer, unassigned) [Example 76] displayed a 50% effective concentration (EC50) of 288 nM.

`CC(F)(C(=O)N[C@H]1Cc2ccccc2[C@@H]1N)c1ccc(F)cc1` (single isomer, unassigned) [Example 77] showed an EC50 of 2630 nM.

Molecule `C[C@H](C(=O)NC1Cc2ccccc2C1NCC(F)F)c1ccc(F)cc1` (single isomer, unassigned) [Example 84] showed a concentration for a half-maximal effect (EC50) of 8 nM.

As for `N[C@H]1c2ccccc2C[C@@H]1NC(=O)C(c1ccc(F)cc1)C1CC1` (single isomer, unassigned) [Example 96], the EC50 worked out at 54 nM.

On to `N[C@H]1c2ccccc2C[C@@H]1NC(=O)C(c1ccc(F)cc1)C1CC1` (single isomer, unassigned) [Example 97], for which the EC50 stood at 807 nM.

As to `COC1c2ccccc2CC1NC(=O)[C@@H](NC(=O)C1CC1)c1ccc(F)cc1` (single isomer, unassigned) [Example 101], the EC50 stood at 6 nM.

The molecule `COC1c2ccccc2CC1NC(=O)[C@@H](NC(=O)C1CC1)c1ccc(F)cc1` (single isomer, unassigned) [Example 102] showed a concentration for a half-maximal effect (EC50) of 6 nM.

For `N[C@H]1c2ccccc2C[C@@H]1NC(=O)C(c1ccc(F)cc1F)N1CC(F)C1` (single isomer, unassigned) [Example 106], the concentration giving a half-maximal response (EC50) worked out at 81 nM.

`N[C@H]1c2ccccc2C[C@@H]1NC(=O)C(c1ccc(F)cc1F)N1CC(F)C1` (single isomer, unassigned) [Example 107] returned a concentration giving a half-maximal response (EC50) of 1220 nM.

Molecule `N[C@H]1c2ccccc2C[C@@H]1NC(=O)C(c1ccc(F)cc1F)n1ncccc1=O` (single isomer, unassigned) [Example 109] came in with a concentration for a half-maximal effect (EC50) of 573 nM.

`N[C@H]1c2ccccc2C[C@@H]1NC(=O)C(c1ccc(F)cc1F)n1ncccc1=O` (single isomer, unassigned) [Example 110] had an EC50 of 1150 nM.

Molecule `N[C@H]1c2ccccc2C[C@@H]1NC(=O)C(c1ccc(F)cc1)N1CC(F)C1` (single isomer, unassigned) [Example 115] came in with an EC50 of 181 nM.

Molecule `N[C@H]1c2ccccc2C[C@@H]1NC(=O)C(c1ccc(F)cc1)N1CC(F)C1` (single isomer, unassigned) [Example 116] showed a half-maximal effective concentration (EC50) of 241 nM.

Take `N[C@H]1c2ccccc2C[C@@H]1NC(=O)C(c1ccc(F)cc1)N1CC(F)C1` (single isomer, unassigned) [Example 117]: the EC50 worked out at 10 nM.

`N[C@H]1c2ccccc2C[C@@H]1NC(=O)C(c1ccc(F)cc1)N1CC(F)C1` (single isomer, unassigned) [Example 118] displayed an EC50 of 2870 nM.

Molecule `COC1c2ccccc2CC1NC(=O)C(c1ccc(F)cc1F)n1ncccc1=O` (single isomer, unassigned) [Example 124, 2-(2,4-difluorophenyl)-N-(trans)-(1-methoxy-2,3-dihydro-1H-inden-2-yl)-2-(6-oxo-1,6-dihydropyridazin-1-yl)acetamide] yielded a concentration giving a half-maximal response (EC50) of 1050 nM.

For `COC1c2ccccc2CC1NC(=O)C(c1ccc(F)cc1F)n1ncccc1=O` (single isomer, unassigned) [Example 125, 2-(2,4-difluorophenyl)-N-(trans)-(1-methoxy-2,3-dihydro-1H-inden-2-yl)-2-(6-oxo-1,6-dihydropyridazin-1-yl)acetamide], the concentration for a half-maximal effect (EC50) was 1070 nM.

`COC1c2ccccc2CC1NC(=O)C(c1ccc(F)cc1F)n1ncccc1=O` (single isomer, unassigned) [Example 126, 2-(2,4-difluorophenyl)-N-(trans)-(1-methoxy-2,3-dihydro-1H-inden-2-yl)-2-(6-oxo-1,6-dihydropyridazin-1-yl)acetamide]: the EC50 is 280 nM.

Molecule `COC1c2ccccc2CC1NC(=O)C(c1ccc(F)cc1F)n1ncccc1=O` (single isomer, unassigned) [Example 127, 2-(2,4-difluorophenyl)-N-(trans)-(1-methoxy-2,3-dihydro-1H-inden-2-yl)-2-(6-oxo-1,6-dihydropyridazin-1-yl)acetamide] registered an EC50 of 82 nM.

`COC1c2ccccc2CC1NC(=O)C(c1ccc(F)cc1)n1ncccc1=O` (single isomer, unassigned) [Example 128, 2-(4-fluorophenyl)-N-(trans)-(1-methoxy-2,3-dihydro-1H-inden-2-yl)-2-(6-oxo-1,6-dihydropyridazin-1-yl)acetamide] returned an EC50 of 1320 nM.

With `COC1c2ccccc2CC1NC(=O)C(c1ccc(F)cc1)n1ncccc1=O` (single isomer, unassigned) [Example 129, 2-(4-fluorophenyl)-N-(trans)-(1-methoxy-2,3-dihydro-1H-inden-2-yl)-2-(6-oxo-1,6-dihydropyridazin-1-yl)acetamide], a half-maximal effect (EC50) was put at 3900 nM.

As to `COC1c2ccccc2CC1NC(=O)C(c1ccc(F)cc1)n1ncccc1=O` (single isomer, unassigned) [Example 130, 2-(4-fluorophenyl)-N-(trans)-(1-methoxy-2,3-dihydro-1H-inden-2-yl)-2-(6-oxo-1,6-dihydropyridazin-1-yl)acetamide], the EC50 is 148 nM.

`COC1c2ccccc2CC1NC(=O)C(c1ccc(F)cc1)n1ncccc1=O` (single isomer, unassigned) [Example 131, 2-(4-fluorophenyl)-N-(trans)-(1-methoxy-2,3-dihydro-1H-inden-2-yl)-2-(6-oxo-1,6-dihydropyridazin-1-yl)acetamide] returned an EC50 of 89 nM.

Consider `COC1c2ccccc2CC1NC(=O)C(c1ccc(F)cc1F)N1CC(F)C1` (single isomer, unassigned) [Example 136, 2-(2,4-difluorophenyl)-2-(3-fluoroazetidin-1-yl)-N-(trans)-(1-methoxy-2,3-dihydro-1H-inden-2-yl)acetamide], for which it took 1980 nM to reach a half-maximal effect (EC50).

`COC1c2ccccc2CC1NC(=O)C(c1ccc(F)cc1F)N1CC(F)C1` (single isomer, unassigned) [Example 137, 2-(2,4-difluorophenyl)-2-(3-fluoroazetidin-1-yl)-N-(trans)-(1-methoxy-2,3-dihydro-1H-inden-2-yl)acetamide] displayed a half-maximal effective concentration (EC50) of 741 nM.

In turn, `COC1c2ccccc2CC1NC(=O)C(c1ccc(F)cc1F)N1CC(F)C1` (single isomer, unassigned) [Example 138, 2-(2,4-difluorophenyl)-2-(3-fluoroazetidin-1-yl)-N-(trans)-(1-methoxy-2,3-dihydro-1H-inden-2-yl)acetamide] yielded an EC50 of 14 nM.

For `COC1c2ccccc2CC1NC(=O)C(c1ccc(F)cc1F)N1CC(F)C1` (single isomer, unassigned) [Example 139, 2-(2,4-difluorophenyl)-2-(3-fluoroazetidin-1-yl)-N-(trans)-(1-methoxy-2,3-dihydro-1H-inden-2-yl)acetamide], a half-maximal response (EC50) required 61 nM.

For `COC1c2ccccc2CC1NC(=O)C(c1ccc(F)cc1)N1CC(F)C1` (single isomer, unassigned) [Example 140, 2-(4-fluorophenyl)-2-(3-fluoroazetidin-1-yl)-N-(trans)-(1-methoxy-2,3-dihydro-1H-inden-2-yl)acetamide], the EC50 turned out to be 1270 nM.

As usually defined, the EC50 is the concentration at which the effect is half-maximal. A low value points to greater potency.
